These results are taken from patent publication US20160199338A1, “COMPOSITIONS CONTAINING MONOACETYLDIACYLGLYCEROL COMPOUND AS AN ACTIVE INGREDIENT FOR PREVENTING OR TREATING RHEUMATOID ARTHRITIS” (ENZYCHEM LIFESCIENCES CORPORATION, priority 2013, published 2016).

The conditions of data set [1]: GLP toxicity test; cited from earlier work.
Data set [2] concerns arthritis induced by bovine type II collagen in male DBA/1J mouse. In words: Collagen-induced arthritis animal model. Type of data set: in vivo. Conditions: for histopathological arthritis score of knee joint: knee joint of both hind legs, vs negative control (FIG. 6); for histopathological arthritis score of knee joint / concentration of IL-6 in serum: EC-18 125, 500, 2,000 mg/kg oral, Remicade 20 mg/kg intraperitoneal, methotrexate 2.5 mg/kg oral; for concentration of IL-6 in serum: serum collected at day of tissue excision, once a day for five weeks, vs negative control (FIG. 4). How it is done:
For arthritis animal model experiment, arthritis was induced in male DBA/1J mouse by administering bovine type II collagen to the mouse. Efficacy of EC-18 for treating (or improving) arthritis was evaluated by repeatedly administering EC-18 to the mouse orally. For comparison, Remicade (positive control 1) was administered intraperitoneally and methotrexate (positive control 2) was administered orally. The experiment included seven groups: normal group (G1), negative control (G2), 125 mg/kg, 500 mg/kg and 2,000 mg/kg of EC-18 (EC-18 treatment groups, G3, G4, G5), 20 mg/kg of Remicade (Positive control 1, G6) and 2.5 mg/kg of Methotrexate (Positive control 2, G7). Each group consists of 10 mice. Olive oil was administered to normal group (G1) and negative control group (G2) as an excipient. In all groups, administration was made once a day for five weeks (a total of 35 administrations). Remicade (G6) was administered intraperitoneally, whereas EC-18, methotrexate and olive oil were administered orally in force. For all groups except normal Group (G1), arthritis was induced by immunizing animals twice with bovine type II collagen and complete Freund's adjuvant or incomplete Freund's adjuvant emulsion. During the observation period, common arthritis symptoms were observed once a day, weigh measured once a week, arthritic score evaluation made with the naked eye twice a week, foot thickness measured twice a week.

As for `CCCCC/C=C\C/C=C\CCCCCCCC(=O)OC(COC(C)=O)COC(=O)CCCCCCCCCCCCCCC` (stereo not drawn) [EC-18, 1-palmitoyl-2-linoleoyl-3-acetylglycerol], in data set [1], the toxicity result was “no toxicity”.
`CN(Cc1cnc2nc(N)nc(N)c2n1)c1ccc(C(=O)N[C@@H](CCC(=O)O)C(=O)O)cc1` [Methothrexate, methotrexate]: in data set [2], the “histopathological arthritis score of knee joint” value is reported as “reduced” and the “concentration of IL-6 in serum” value is given as “reduced”.
Regarding “Remicade: positive control 1, administered intraperitoneally at 20 mg/kg”, the “crushing of cartilage and increase of Pannus (stained arthritic tissue)” value in data set [2] (EC-18 500 mg/kg (G4), Remicade 20 mg/kg (G6), vs negative control (FIGS. 7 and 8)) was “reduced”. In data set [2], the “histopathological arthritis score of knee joint” value is “reduced” and the “concentration of IL-6 in serum” value is reported as “reduced”.
